Data published in article PMC8773749, “Combinatorial Virtual Screening Revealed a Novel Scaffold for TNKS Inhibition to Combat Colorectal Cancer” (Biomedicines, 2022).

Assays:
TNKS-1 [1] = target: T1, TNKS-1 (Homo sapiens, UniProt O95271); assay: TNKS-1 histone ribosylation colorimetric assay, single concentration […]; type: biochemical
TNKS-1 [2] = target: T1, TNKS-1; assay: TNKS-1 histone ribosylation colorimetric assay (BPS Bioscience kit); type: biochemical

T1 sequence (O95271 whole entry): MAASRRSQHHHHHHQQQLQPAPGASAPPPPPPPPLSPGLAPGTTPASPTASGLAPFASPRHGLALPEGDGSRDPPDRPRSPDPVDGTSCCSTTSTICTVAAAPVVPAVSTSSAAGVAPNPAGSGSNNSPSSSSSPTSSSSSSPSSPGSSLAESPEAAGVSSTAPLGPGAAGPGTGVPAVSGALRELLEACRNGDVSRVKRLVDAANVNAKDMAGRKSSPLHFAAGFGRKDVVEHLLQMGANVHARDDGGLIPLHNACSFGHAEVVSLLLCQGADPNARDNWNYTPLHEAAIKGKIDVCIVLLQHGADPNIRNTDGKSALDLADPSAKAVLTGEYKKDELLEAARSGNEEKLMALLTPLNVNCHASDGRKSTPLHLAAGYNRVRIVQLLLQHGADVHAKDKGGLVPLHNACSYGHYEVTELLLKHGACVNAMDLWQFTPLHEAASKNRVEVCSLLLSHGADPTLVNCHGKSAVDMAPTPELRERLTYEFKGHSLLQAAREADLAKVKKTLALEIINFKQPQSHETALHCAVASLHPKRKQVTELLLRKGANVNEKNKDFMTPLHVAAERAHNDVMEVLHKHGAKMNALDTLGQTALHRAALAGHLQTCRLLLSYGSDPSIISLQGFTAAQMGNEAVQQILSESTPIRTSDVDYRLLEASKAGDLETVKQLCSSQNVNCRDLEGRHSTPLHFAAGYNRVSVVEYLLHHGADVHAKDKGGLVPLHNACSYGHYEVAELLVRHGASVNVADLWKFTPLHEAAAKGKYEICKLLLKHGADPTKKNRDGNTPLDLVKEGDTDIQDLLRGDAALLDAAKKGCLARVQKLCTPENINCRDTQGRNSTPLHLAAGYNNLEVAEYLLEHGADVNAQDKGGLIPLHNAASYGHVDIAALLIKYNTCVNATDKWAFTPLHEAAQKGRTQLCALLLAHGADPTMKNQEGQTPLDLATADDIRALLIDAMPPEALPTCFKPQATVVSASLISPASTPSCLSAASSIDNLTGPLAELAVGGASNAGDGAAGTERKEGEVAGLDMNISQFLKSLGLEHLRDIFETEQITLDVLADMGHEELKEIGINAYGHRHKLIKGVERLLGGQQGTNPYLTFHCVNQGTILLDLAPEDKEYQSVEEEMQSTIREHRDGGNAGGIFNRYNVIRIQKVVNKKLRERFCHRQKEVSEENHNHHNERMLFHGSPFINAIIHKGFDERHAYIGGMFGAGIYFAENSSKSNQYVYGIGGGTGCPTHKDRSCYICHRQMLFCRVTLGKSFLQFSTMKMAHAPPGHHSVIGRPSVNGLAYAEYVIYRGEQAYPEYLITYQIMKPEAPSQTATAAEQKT

Row | Compound | % of Inhibition at 10 μM / TNKS-1 ^c (TNKS-1 [1]) | IC50 (TNKS-1 [2]) [µM]
1 | CN(C)c1ccc2c(c1)oc(=O)c1ccccc12 [NSC102371] | 88.54 | –
2 | COc1ccc(-c2cc3ccccc3c(=O)o2)cc1 [NSC123012] | 50.92 | –
3 | Cc1c(C)c2ccc(N(C)C)cc2[nH]c1=O [NSC295092] | – | 0.0661
4 | CN(C)c1ccc2c3c(c(=O)oc2c1)CCC3 [NSC315247] | 60.07 | –
5 | Cc1c(Cl)c2ccc(N(C)C)cc2[nH]c1=O [NSC319963] | – | 0.0219
